# Measured values: ChEMBL document CHEMBL1135257, “Bivalent inhibition of beta-tryptase: distance scan of neighboring subunits by dibasic inhibitors” (Bioorg Med Chem Lett, 2002)
# Target: Tryptase beta-1 (Homo sapiens, UniProt Q15661)
# Assay: Inhibitory activity against human Tryptase beta was evaluated
# Tryptase beta-1, sequence (Q15661 whole entry): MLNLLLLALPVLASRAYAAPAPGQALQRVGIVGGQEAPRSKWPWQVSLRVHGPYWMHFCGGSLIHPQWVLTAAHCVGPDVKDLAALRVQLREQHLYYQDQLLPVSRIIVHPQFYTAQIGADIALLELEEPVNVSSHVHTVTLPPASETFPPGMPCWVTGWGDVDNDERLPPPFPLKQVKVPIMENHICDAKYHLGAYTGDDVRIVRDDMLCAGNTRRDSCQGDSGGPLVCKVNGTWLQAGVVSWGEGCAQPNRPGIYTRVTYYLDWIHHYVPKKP
row,Ki,SMILES
1,10 nM,COC(=O)C(Cc1cccc(CN)c1)NC(=O)CCNC(=O)C[C@@H]1NC(=O)[C@@H](CC(=O)NCCC(=O)NC(Cc2cccc(CN)c2)C(=O)OC)NC1=O (some centres not stated)
2,180 nM,COC(=O)C(Cc1cccc(CN)c1)NC(=O)CC[C@@H]1NC(=O)[C@@H](CC(=O)NCC(=O)NC(Cc2cccc(CN)c2)C(=O)OC)NC1=O (some centres not stated)
3,350 nM,COC(=O)C(Cc1cccc(CN)c1)NC(=O)CCCNC(=O)C[C@@H]1NC(=O)[C@@H](CC(=O)NCCCC(=O)NC(Cc2cccc(CN)c2)C(=O)OC)NC1=O (some centres not stated)
4,2400 nM,COC(=O)C(Cc1cccc(CN)c1)NC(=O)CCC1NC(=O)[C@@H](CCC(=O)NC(Cc2cccc(CN)c2)C(=O)OC)NC1=O (some centres not stated)
5,213000 nM,COC(=O)[C@@H](Cc1ccc(CN)cc1)NC(C)=O
6,18 nM,COC(=O)C(Cc1cccc(CN)c1)NC(=O)CNC(=O)C[C@@H]1NC(=O)[C@@H](CC(=O)NCC(=O)NC(Cc2cccc(CN)c2)C(=O)OC)NC1=O (some centres not stated)
7,13700 nM,COC(=O)[C@@H](Cc1cccc(CN)c1)NC(C)=O
